Molecular target: recombinant human CCR5 receptor (Homo sapiens, UniProt P51681)
Assay: in vitro radioligand binding assay (inhibition of binding of RANTES or MIP-1α), scintillation proximity
Conditions: membranes from Chinese hamster ovary cells expressing recombinant human CCR5; 0.1 nM iodinated RANTES or MIP-1α; average if tested more than once
Procedure: The ability of compounds to inhibit the binding of RANTES or MIP-1α was assessed by an in vitro radioligand binding assay. Membranes were prepared from Chinese hamster ovary cells which expressed the recombinant human CCR5 receptor. These membranes were incubated with 0.1 nM iodinated RANTES or MIP-1α, scintillation proximity beads and various concentrations of the compounds of the invention in 96-well plates. The amount of iodinated RANTES or MIP-1α bound to the receptor was determined by scintillation counting.
In Table IV the results are presented as Pic50 values.

Chain of recombinant human CCR5 receptor (P51681 whole entry): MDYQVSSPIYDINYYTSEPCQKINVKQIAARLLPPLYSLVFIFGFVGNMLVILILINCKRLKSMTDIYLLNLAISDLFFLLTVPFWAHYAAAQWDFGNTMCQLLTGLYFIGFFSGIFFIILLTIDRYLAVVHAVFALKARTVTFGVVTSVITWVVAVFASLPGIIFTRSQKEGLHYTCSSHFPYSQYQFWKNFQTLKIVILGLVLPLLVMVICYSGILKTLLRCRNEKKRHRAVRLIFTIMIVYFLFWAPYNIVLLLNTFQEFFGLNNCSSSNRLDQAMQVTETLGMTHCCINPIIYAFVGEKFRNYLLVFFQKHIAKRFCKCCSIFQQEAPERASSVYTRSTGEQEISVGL

CCN(C(=O)Cc1ccc(S(C)(=O)=O)cc1)C1CCN(CC[C@H](NC(=O)N2CCC(F)CC2)c2ccccc2)CC1 [Table 1 Compound 2, (S)—N-[1-(3-phenyl-3-[4-fluoropiperidin-1-ylcarboxyamino]propyl)-4-piperidinyl]-N-ethyl-4-methanesulfonylphenylacetamide]
Pic50: 7.68

N-[1-((4S)-4-Phenyl-4-[3,3-difluorocyclobutylcarboxyamino]but-2-yl)-4-piperidinyl]-N-ethyl-4-methanesulfonylphenylacetamide hydrochloride [Table 3 Compound 8]
Pic50: 9.15

CCN(C(=O)Cc1ccc(S(C)(=O)=O)cc1)C1CCN(CC[C@H](NC(=O)C2CCC(F)(F)CC2)c2ccccc2)CC1 [Table 1 Compound 1, (S)—N-[1-(3-phenyl-3-[4,4-difluorocyclohexylcarboxyamino]propyl)-4-piperidinyl]-N-ethyl-4-methanesulfonylphenylacetamide]
Pic50: 8.95

(S)—N-[1-(3-[3,5-Difluorophenyl]-3-[3,3-difluorocyclobutylcarboxyamino]propyl)-4-piperidinyl]-N-ethyl-4-methanesulfonylphenylacetamide hydrochloride [Table 1 Compound 6]
Pic50: 8.65

CCN(C(=O)Cc1ccc(S(C)(=O)=O)cc1)[C@@H]1C[C@H]2CC[C@@H](C1)N2CC[C@H](NC(=O)C1CCC(F)(F)CC1)c1ccccc1 [Table 2 Compound 1, (S)-4,4-difluoro-cyclohexanecarboxylic acid[3-(3-{ethyl-[2-(4-methanesulfonyl-phenyl)-acetyl]-amino}-8-aza-bicyclo[3.2.1]oct-8-yl-exo)-1-phenyl-propyl]-amide]
IC50: 3.31 nM

CCN(C(=O)Cc1ccc(S(C)(=O)=O)cc1)C1CCN(CC[C@H](NC(=O)N2CC[C@@H](F)C2)c2ccccc2)CC1 [Table 1 Compound 3, (S)—N-[1-(3-Phenyl-3-[(R)-3-fluoropyrrolidin-1-ylcarboxyamino]propyl)-4-piperidinyl]-N-ethyl4-methanesulfonylphenylacetamide]
Pic50: 7.76

Reference: US20050171353A1, “Piperidine or 8-aza-bicyclo[3.2.1]oct-3-yl derivatives useful as modulators of chemokine receptor activity (especially ccr5)” (priority 2002, published 2005)
